# Experiments:
# [1] = test system: human large intestine cancer cell line (HCT-116); assay: Human large intestine cancer (HCT-116) cell growth inhibition test; type: cell-based; settings: 72 h, HCT-116, culture for 3 days, sulforhodamine B absorbance
# Method: Human Large Intestine Cancer (HCT-116) Cell Growth Inhibition Test
# The measurement of a human large intestine cancer cell growth inhibitory effect was carried out by modifying the method of Simak et al. (Cancer Research, 69, 6208 (2009)).
# A human large intestine cancer cell line (HCT-116) (manufactured by DS Pharma Biomedical Co., Ltd., Cat. No. EC91091005) was cultured in McCoy's 5a (manufactured by GIBCO/Thermo Fisher Scientific, Inc., REF. 16600-082) medium containing 10% FBS (manufactured by GIBCO/Thermo Fisher Scientific, Inc., REF. 10082-147) and 1% penicillin/streptomycin/amphotericin B (manufactured by GIBCO/Thermo Fisher Scientific, Inc., REF. 15240-096) and inoculated at 1.0×10^3 cells/well in a 96-well plate (manufactured by Corning Inc., REF. 353072). After overnight culture in a carbon dioxide incubator, it was replaced with a fresh McCoy's 5a medium containing 10% FBS on the next day, and a test compound dissolved in DMSO (manufactured by Wako Pure Chemical Industries, Ltd., Code No. 043-07216) (final DMSO concentration: 0.1%) was added and left standing in a carbon dioxide incubator. After culturing for 3 days, the absorbance of each well was measured by using In Vitro Toxicology Assay Kit Sulforhodamine B based (manufactured by Sigma-Aldrich Co. LLC., Pcode 1001910706).
# The rate of inhibition of cell growth at each concentration was calculated from the test compound concentration and the absorbance of sulforhodamine B, and the concentration of the test compound necessary for inhibiting 50% of cell growth (IC50 value) was calculated by using EXSUS (version 8.0.0 or version 8.0.1, manufactured by CAC Exicare Corp.).
# [2] = target: T1, CDK7 (Homo sapiens, UniProt P50613); assay: CDK7 enzyme inhibition test; type: biochemical; settings: Ki=IC50/(1+S/Km); 33P bound to MBP, [γ-33P]ATP, 30° C. for 20 minutes; read-out: Ki value of CDK7 inhibitory activity
# T1 construct: purchased Carna Biosciences, Inc. 04-108
# T1 sequence (P50613 whole entry): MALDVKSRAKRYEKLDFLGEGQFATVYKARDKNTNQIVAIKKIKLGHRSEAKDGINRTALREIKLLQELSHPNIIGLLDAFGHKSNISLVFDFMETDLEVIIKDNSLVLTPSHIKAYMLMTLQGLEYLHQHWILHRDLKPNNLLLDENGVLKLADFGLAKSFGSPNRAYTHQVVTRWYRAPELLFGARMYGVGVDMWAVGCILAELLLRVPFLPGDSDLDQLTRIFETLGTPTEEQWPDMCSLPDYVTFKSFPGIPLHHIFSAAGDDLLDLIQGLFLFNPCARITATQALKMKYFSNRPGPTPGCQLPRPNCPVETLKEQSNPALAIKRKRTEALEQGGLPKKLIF
# T1 sequence (P51946 whole entry partner): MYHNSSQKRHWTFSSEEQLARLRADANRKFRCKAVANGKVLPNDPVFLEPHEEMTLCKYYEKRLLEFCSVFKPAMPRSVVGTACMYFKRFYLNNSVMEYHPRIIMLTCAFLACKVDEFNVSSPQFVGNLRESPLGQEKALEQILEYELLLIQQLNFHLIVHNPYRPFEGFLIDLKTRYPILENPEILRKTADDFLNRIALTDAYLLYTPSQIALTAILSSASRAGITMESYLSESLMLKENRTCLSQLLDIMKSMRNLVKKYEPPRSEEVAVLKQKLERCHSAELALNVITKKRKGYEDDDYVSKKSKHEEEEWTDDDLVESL
# T1 sequence (P51948 whole entry partner): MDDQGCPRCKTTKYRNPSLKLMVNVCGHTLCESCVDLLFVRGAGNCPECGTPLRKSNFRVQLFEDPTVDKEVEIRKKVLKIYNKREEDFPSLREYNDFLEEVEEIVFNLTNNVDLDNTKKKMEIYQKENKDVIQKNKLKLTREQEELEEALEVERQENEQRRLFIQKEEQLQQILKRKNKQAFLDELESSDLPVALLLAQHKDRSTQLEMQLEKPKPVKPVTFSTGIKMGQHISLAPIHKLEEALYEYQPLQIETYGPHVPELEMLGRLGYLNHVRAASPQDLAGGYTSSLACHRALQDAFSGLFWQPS
# Method: CDK7 Enzyme Inhibition Test
# The preparation of a buffer solution was performed by mixing a N-2-hydroxyethylpiperazine-N′-2-ethanesulfonic acid buffer solution (HEPES buffer solution) (pH 7.4), dithiothreitol (DTT), Triton X-100, and magnesium chloride (MgCl2). A 500 μM [γ-^33P]ATP solution was used by diluting a 10 mM ATP solution and a commercially available [γ-^33P]ATP solution (manufactured by PerkinElmer, Inc., Code No. NEG-302H) with the buffer solution. A CDK7 solution was used by diluting commercially available CDK7 (manufactured by Carna Biosciences, Inc., Catalog No. 04-108) with the buffer solution. A substrate solution was used by diluting myelin basic protein (MBP) with the buffer solution. As for the preparation of a reaction solution, the buffer solution, the 500 μM [γ-^33P]ATP solution, the CDK7 solution, and the substrate solution were mixed at 4° C. to obtain a reaction solution.
# CDK7 enzyme reaction was performed by adding 5 μL of a test compound solution prepared with 10% dimethyl sulfoxide (DMSO)/90% injectable distilled water, and 45 μL of the reaction solution to a 1.5 mL microtube at 4° C. and reacting in the microtube at 30° C. for 20 minutes in a water bath incubator. After the reaction, a 10% aqueous trichloroacetic acid (TCA) solution was added to each microtube while cooled to 4° C., and mixed to terminate the reaction. The resultant was left standing at 4° C. for 10 minutes and then centrifuged in a centrifuge, and the supernatant was discarded. Next, a 2% aqueous TCA solution was added, mixed, and then centrifuged in a centrifuge, and the supernatant was discarded. This washing operation was performed twice. After the washing, precipitates were dissolved in a 1 N aqueous sodium hydroxide (NaOH) solution, and the energy quantity (radioactivity) of the reaction product was measured with a liquid scintillation counter.
# The calculation of the inhibitory activity of the test compound against CDK7 was performed as a test compound concentration inhibiting 50% of the amount of ^33P bound to MBP (IC50 value) by using EXSUS (version 8.0.0 or version 8.0.1, manufactured by CAC Exicare Corp.).
# (§1) The calculation of a Ki value was performed according to the following calculation expression. S means the concentration of ATP contained in the reaction solution, and Km means a Michaelis-Menten constant. Ki=IC50/(1+S/Km)
# [3] = target: T2, CDK2 (Homo sapiens, UniProt P24941); assay: CDK2 enzyme inhibition test; type: biochemical; settings: Ki=IC50/(1+S/Km); 33P bound to MBP, [γ-33P]ATP, 30° C. for 20 minutes; read-out: Ki value of CDK2 inhibitory activity
# T2 construct: purchased Invitrogen Corp. PV3267
# Method: CDK2 Enzyme Inhibition Test
# The preparation of a buffer solution was performed by mixing a HEPES buffer solution (pH 7.4), DTT, Triton X-100, and MgCl2. A 500 μM [γ-^33P]ATP solution was used by diluting a 10 mM ATP solution and a commercially available [γ-^33P]ATP solution (manufactured by PerkinElmer, Inc., Code No. NEG-302H) with the buffer solution. A CDK2 solution was used by diluting commercially available CDK2 (manufactured by Invitrogen Corp., Catalog No. PV3267) with the buffer solution. A substrate solution was used by diluting MBP with the buffer solution. As for the preparation of a reaction solution, the buffer solution, the 500 μM [γ-^33P]ATP solution, the CDK2 solution, and the substrate solution were mixed at 4° C. to obtain a reaction solution.
# CDK2 enzyme reaction was performed by adding 5 μL of a test compound solution prepared with 10% DMSO/90% injectable distilled water, and 45 μL of the reaction solution in a 1.5 mL microtube at 4° C. and reacting in the microtube at 30° C. for 20 minutes in a water bath incubator. After the reaction, a 10% aqueous TCA solution was added to each microtube while cooled to 4° C., and mixed to terminate the reaction. The resultant was left standing at 4° C. for 10 minutes and then centrifuged in a centrifuge, and the supernatant was discarded. Next, a 2% aqueous TCA solution was added, mixed thereto, and then centrifuged in a centrifuge, and the supernatant was discarded. This washing operation was performed twice. After the washing, precipitates were dissolved in a 1 N aqueous NaOH solution, and the radioactivity was measured with a liquid scintillation counter.
# The calculation of the inhibitory activity of the test compound against CDK2 was performed as a test compound concentration inhibiting 50% of the amount of ^33P bound to MBP (IC50 value) by using EXSUS (version 8.0.0 or version 8.0.1, manufactured by CAC Exicare Corp.).
# as §1
Compound,IC50 [1],Ki [2],Ki [3]
"CC1(C)c2[nH]nc(NC(=O)C3([Si](C)(C)C)CCC3)c2CN1C(=O)NC[C@@H](O)c1ccccc1 [IV-787, (S)—N-(2-Hydroxy-2-phenylethyl)-6,6-dimethyl-3-[1-(trimethylsilyl)cyclobutanecarboxamido]-4,6-dihydropyrrolo[3,4-c]pyrazole-5(1H)-carboxamide]",≤ 500 nM,≤ 50 nM,–
"CC(C)[C@@H](CC(C)(C)O)NC(=O)N1Cc2c(NC(=O)C3([Si](C)(C)C)CCC3)n[nH]c2C1(C)C [IV-815, (R)—N-(5-Hydroxy-2,5-dimethylhexan-3-yl)-6,6-dimethyl-3-[1-(trimethylsilyl)cyclobutanecarboxamido]-4,6-dihydropyrrolo[3,4-c]pyrazole-5(1H)-carboxamide]",≤ 500 nM,≤ 50 nM,–
"CC(C)(CO)C(NC(=O)N1Cc2c(NC(=O)C3([Si](C)(C)C)CCC3)n[nH]c2C1(C)C)c1ccccc1F (stereo not shown) [IV-890, N-[1-(2-Fluorophenyl)-3-hydroxy-2,2-dimethylpropyl]-6,6-dimethyl-3-[1-(trimethylsilyl)cyclobutanecarboxamido]-4,6-dihydropyrrolo[3,4-c]pyrazole-5(1H)-carboxamide]",≤ 500 nM,–,≥ 1000 nM
"Cc1ccccc1[C@@H](CO)NC(=O)N1Cc2c(NC(=O)C3([Si](C)(C)C)CCC3)n[nH]c2C1(C)C [IV-1067, (S)—N-[2-Hydroxy-1-(o-tolyl)ethyl]-6,6-dimethyl-3-[1-(trimethylsilyl)cyclobutanecarboxamido]-4,6-dihydropyrrolo[3,4-c]pyrazole-5(1H)-carboxamide]",≤ 500 nM,≤ 50 nM,–
"CO[C@H](C(=O)N1Cc2c(NC(=O)C3([Si](C)(C)C)CCC3)n[nH]c2C1(C)C)c1ccccc1 [IV-1176, (S)—N-[5-(2-Methoxy-2-phenylacetyl)-6,6-dimethyl-1,4,5,6-tetrahydropyrrolo[3,4-c]pyrazol-3-yl]-1-(trimethylsilyl)cyclobutanecarboxamide]",≤ 500 nM,≤ 50 nM,–
"CC1(C)c2[nH]nc(NC(=O)C3([Si](C)(C)C)CCC3)c2CN1C(=O)[C@@H](CO)c1ccccc1 [IV-1215, (R)—N-[5-(3-Hydroxy-2-phenylpropanoyl)-6,6-dimethyl-1,4,5,6-tetrahydropyrrolo[3,4-c]pyrazol-3-yl]-1-(trimethylsilyl)cyclobutanecarboxamide]",≤ 500 nM,≤ 50 nM,–
"COCC(Oc1ccccc1)C(=O)N1Cc2c(NC(=O)C3([Si](C)(C)C)CCC3)n[nH]c2C1(C)C (stereo not shown) [IV-1348, N-[5-(3-Methoxy-2-phenoxypropanoyl)-6,6-dimethyl-1,4,5,6-tetrahydropyrrolo[3,4-c]pyrazol-3-yl]-1-(trimethylsilyl)cyclobutanecarboxamide]",≤ 500 nM,≤ 50 nM,–
"COC(C(=O)N1Cc2c(NC(=O)C3([Si](C)(C)C)CCC3)n[nH]c2C1(C)C)c1ccc(F)cc1 (stereo not shown) [IV-1427, N-{5-[2-(4-Fluorophenyl)-2-methoxyacetyl]-6,6-dimethyl-1,4,5,6-tetrahydropyrrolo[3,4-c]pyrazol-3-yl}-1-(trimethylsilyl)cyclobutanecarboxamide]",≤ 500 nM,≤ 50 nM,–

# Now from value to compound, other results behind:
IC50 [1],Ki [2],Compound,Ki [3]
≤ 500 nM,≤ 50 nM,"CC1(C)c2[nH]nc(NC(=O)C3([Si](C)(C)C)CCC3)c2CN1C(=O)NC[C@H](O)c1ccccc1 [IV-786, (R)—N-(2-Hydroxy-2-phenylethyl)-6,6-dimethyl-3-[1-(trimethylsilyl)cyclobutanecarboxamido]-4,6-dihydropyrrolo[3,4-c]pyrazole-5(1H)-carboxamide]",–
≤ 500 nM,≤ 50 nM,"CC1(C)c2[nH]nc(NC(=O)C3([Si](C)(C)C)CCC3)c2CN1C(=O)N[C@H](CO)Cc1ccccc1 [IV-862, (S)—N-(1-Hydroxy-3-phenylpropan-2-yl)-6,6-dimethyl-3-[1-(trimethylsilyl)cyclobutanecarboxamido]-4,6-dihydropyrrolo[3,4-c]pyrazole-5(1H)-carboxamide]",–
≤ 500 nM,≤ 50 nM,"CC1(C)c2[nH]nc(NC(=O)C3([Si](C)(C)C)CCC3)c2CN1C(=O)N[C@H](CO)c1ccccc1Cl [IV-959, (S)—N-[1-(2-Chlorophenyl)-2-hydroxyethyl]-6,6-dimethyl-3-[1-(trimethylsilyl)cyclobutanecarboxamido]-4,6-dihydropyrrolo[3,4-c]pyrazole-5(1H)-carboxamide]",–
≤ 500 nM,≤ 50 nM,"COC(C)C(=O)N1Cc2c(NC(=O)C3([Si](C)(C)C)CCC3)n[nH]c2C1(C)C (stereo not shown) [IV-1241, N-[5-(2-Methoxypropanoyl)-6,6-dimethyl-1,4,5,6-tetrahydropyrrolo[3,4-c]pyrazol-3-yl]-1-(trimethylsilyl)cyclobutanecarboxamide]",–
≤ 500 nM,≤ 50 nM,"CC(Oc1cccnc1)C(=O)N1Cc2c(NC(=O)C3([Si](C)(C)C)CCC3)n[nH]c2C1(C)C (stereo not shown) [IV-1274, N-{6,6-Dimethyl-5-[2-(pyridin-3-yloxy)propanoyl]-1,4,5,6-tetrahydropyrrolo[3,4-c]pyrazol-3-yl}-1-(trimethylsilyl)cyclobutanecarboxamide]",–
≤ 500 nM,≤ 50 nM,"CC1(C)c2[nH]nc(NC(=O)C3([Si](C)(C)C)CCC3)c2CN1C(=O)C(CO)Oc1ccccc1 (stereo not shown) [IV-1330, N-[5-(3-Hydroxy-2-phenoxypropanoyl)-6,6-dimethyl-1,4,5,6-tetrahydropyrrolo[3,4-c]pyrazol-3-yl]-1-(trimethylsilyl)cyclobutanecarboxamide]",–
